Results: ChEMBL document CHEMBL1138548, “Three-dimensional QSAR analyses of 1,3,4-trisubstituted pyrrolidine-based CCR5 receptor inhibitors” (Eur J Med Chem, 2008)

molecular target: C-C chemokine receptor type 5 (Homo sapiens, UniProt P51681); experiment: biochemical; type: cell-based, CHO
Sequence (P51681 whole entry): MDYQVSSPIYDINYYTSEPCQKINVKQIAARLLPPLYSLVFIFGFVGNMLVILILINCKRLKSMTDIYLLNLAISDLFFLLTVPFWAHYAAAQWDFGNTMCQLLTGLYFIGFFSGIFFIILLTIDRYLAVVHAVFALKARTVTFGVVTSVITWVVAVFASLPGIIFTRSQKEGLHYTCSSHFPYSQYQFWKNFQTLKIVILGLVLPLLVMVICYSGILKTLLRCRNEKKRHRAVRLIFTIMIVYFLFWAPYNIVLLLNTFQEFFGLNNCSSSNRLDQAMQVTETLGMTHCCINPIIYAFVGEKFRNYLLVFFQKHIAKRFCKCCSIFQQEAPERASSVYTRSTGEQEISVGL
Description: Displacement of [125I]MIP1alpha from human CCR5 expressed in CHO cells

For `CCn1nc(-c2ccc(CN)cc2)cc1C1CCN(C[C@H]2CN([C@@H](C(=O)O)C3CCCCC3)C[C@@H]2c2ccccc2)CC1`, which IC50 is on record?
The IC50 was 122 nM.

How did the IC50 turn out when `CCc1nc(Cc2ccccc2)oc1C1CCN(C[C@H]2CN([C@H](CC3CCC3)C(=O)O)C[C@@H]2c2ccccc2)CC1` was run?
Its IC50 is 0.89 nM.

How did the IC50 turn out when `O=C(O)[C@@H](CC1CCCCC1)N1C[C@H](CN2CCC(CCC(F)(F)c3ccc(F)cc3)CC2)[C@@H](c2ccccc2)C1` was run?
Its IC50 is 0.3 nM.

`Cn1nnc(-c2ccc(CCCC3(O)CCN(C[C@H]4CN(CC5CCCCC5)C[C@@H]4c4ccccc4)CC3)cc2)n1` was tested. Which IC50 did it give?
The IC50 was 0.4 nM.

With `CCn1nc(C(C)(C)c2ccccc2)cc1C1CCN(C[C@H]2CN([C@@H](C(=O)O)C3CCCCC3)C[C@@H]2c2ccccc2)CC1` as the compound, how does the IC50 read?
Its IC50 is 6.9 nM.

`C=C(Cc1ccccc1)[C@@H](C1CCCCC1)N1C[C@H](CN2CCC(O)(CCCc3ccccc3)CC2)[C@@H](c2ccccc2)C1` was tested. Which IC50 did it give?
The IC50 was 3.6 nM.

`CC(C)C[C@H](C(=O)O)N1C[C@H](CN2CCC(CCS(=O)(=O)c3ccc(F)cc3)CC2)[C@@H](c2cccc(F)c2)C1` was tested. Which IC50 did it give?
Its IC50 is 0.9 nM.

With `CCc1nc(Cc2ccccc2)sc1C1CCN(C[C@H]2CN([C@H](CC3CCC3)C(=O)O)C[C@@H]2c2ccccc2)CC1` as the compound, how does the IC50 read?
Its IC50 is 0.76 nM.

With `O=C(O)[C@@H](C1CCCCC1)N1C[C@H](CN2CCC(c3cc(Cc4ccccc4)on3)CC2)[C@@H](c2ccccc2)C1` as the compound, how does the IC50 read?
Its IC50 is 1.2 nM.

For `CC(C)C[C@H](C(=O)O)N1C[C@H](CN2CCC(CCSc3ccc(F)cc3)CC2)[C@@H](c2cccc(F)c2)C1`, which IC50 is on record?
Its IC50 is 0.8 nM.

For `CC(C)C[C@H](C(=O)O)N1C[C@H](CN2CCC(CCC(F)(F)c3ccc(F)cc3)CC2)[C@@H](c2cccc(F)c2)C1`, which IC50 is on record?
Its IC50 is 0.5 nM.

`O=C(O)[C@@H](CC1CCC1)N1C[C@H](CN2CCC(c3[nH]c(Cc4ccccc4)nc3Cl)CC2)[C@@H](c2ccccc2)C1` was tested. Which IC50 did it give?
The IC50 was 0.6 nM.

With `O=C(O)[C@@H](CC1CCC1)N1C[C@H](CN2CCC(c3nnc4ccccn34)CC2)[C@@H](c2cccc(F)c2)C1` as the compound, how does the IC50 read?
Its IC50 is 12 nM.

For `CCc1nc(Cc2ccccc2)sc1C1CCN(C[C@H]2CN([C@H](CC(C)C)C(=O)O)C[C@@H]2c2ccccc2)CC1`, which IC50 is on record?
Its IC50 is 1 nM.

`O=C(O)[C@@H](C1CCCCC1)N1C[C@H](CN2CCC(c3cc(C(F)(F)c4ccccc4)n[nH]3)CC2)[C@@H](c2ccccc2)C1` was tested. Which IC50 did it give?
The IC50 was 2.1 nM.

`CC(C)(c1ccccc1)c1cc(C2CCN(C[C@H]3CN([C@@H](C(=O)O)C4CCCCC4)C[C@@H]3c3ccccc3)CC2)[nH]n1` was tested. Which IC50 did it give?
Its IC50 is 11.5 nM.

With `CCc1nc(Cc2ccccc2)[nH]c1C1CCN(C[C@H]2CN([C@H](CC3CCC3)C(=O)O)C[C@@H]2c2ccccc2)CC1` as the compound, how does the IC50 read?
Its IC50 is 0.57 nM.

With `O=C(O)[C@@H](CC1CC1)N1C[C@H](CN2CCC(CCC(OCCO)c3ccc(F)cc3)CC2)[C@@H](c2cccc(F)c2)C1` (some centres not stated) as the compound, how does the IC50 read?
The IC50 was 3.7 nM.

Which IC50 does the source give for `O=C(O)[C@@H](CC1CCC1)N1C[C@H](CN2CCC(c3cnc(Cc4ccccc4)s3)CC2)[C@@H](c2ccccc2)C1` here?
Its IC50 is 0.23 nM.

How did the IC50 turn out when `O=C(O)[C@@H](C1CCCCC1)N1C[C@H](CN2CCC(c3cc(Cc4ccccc4)no3)CC2)[C@@H](c2ccccc2)C1` was run?
Its IC50 is 0.8 nM.

`O=C(O)[C@@H](CC1CCC1)N1C[C@H](CN2CCC(c3cn4cccnc4n3)CC2)[C@@H](c2cccc(F)c2)C1` was tested. Which IC50 did it give?
The IC50 was 200 nM.

For `O=C(O)[C@@H](CC1CC1)N1C[C@H](CN2CCC(c3cnc(Cc4ccccc4)s3)CC2)[C@@H](c2ccccc2)C1`, which IC50 is on record?
The IC50 was 0.23 nM.
